Experimental data from patent US20130196050A1, “SALTY TASTE ENHANCER” (AJINOMOTO CO., INC., priority 2010, published 2013).

Target: T1, Human ENaC δ, β and γ subunit (Homo sapiens, UniProt P51168+P51170+P51172)
T1 construct: expressed in transfected cells; host or cells: Xenopus laevis (African clawed frog) oocytes injected with cRNA
T1 sequence (P51172 1-638 isoform P51172-1): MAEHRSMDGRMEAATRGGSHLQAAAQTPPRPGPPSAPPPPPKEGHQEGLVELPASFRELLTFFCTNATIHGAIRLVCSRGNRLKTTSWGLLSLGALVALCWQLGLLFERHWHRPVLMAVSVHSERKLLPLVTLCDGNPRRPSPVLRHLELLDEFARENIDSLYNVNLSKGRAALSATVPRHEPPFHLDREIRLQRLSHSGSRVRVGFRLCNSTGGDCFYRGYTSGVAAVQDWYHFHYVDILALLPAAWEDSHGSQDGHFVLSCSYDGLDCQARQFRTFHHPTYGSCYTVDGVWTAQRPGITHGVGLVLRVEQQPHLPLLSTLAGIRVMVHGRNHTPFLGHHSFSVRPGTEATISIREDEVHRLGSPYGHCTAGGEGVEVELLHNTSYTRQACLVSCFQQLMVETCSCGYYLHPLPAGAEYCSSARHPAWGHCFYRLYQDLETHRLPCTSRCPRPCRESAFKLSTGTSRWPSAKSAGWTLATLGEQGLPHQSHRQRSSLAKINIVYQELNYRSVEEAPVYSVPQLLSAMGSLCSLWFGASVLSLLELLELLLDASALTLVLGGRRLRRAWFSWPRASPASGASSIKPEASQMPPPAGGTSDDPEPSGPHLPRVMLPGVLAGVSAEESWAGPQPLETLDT
T1 sequence (P51168 1-640): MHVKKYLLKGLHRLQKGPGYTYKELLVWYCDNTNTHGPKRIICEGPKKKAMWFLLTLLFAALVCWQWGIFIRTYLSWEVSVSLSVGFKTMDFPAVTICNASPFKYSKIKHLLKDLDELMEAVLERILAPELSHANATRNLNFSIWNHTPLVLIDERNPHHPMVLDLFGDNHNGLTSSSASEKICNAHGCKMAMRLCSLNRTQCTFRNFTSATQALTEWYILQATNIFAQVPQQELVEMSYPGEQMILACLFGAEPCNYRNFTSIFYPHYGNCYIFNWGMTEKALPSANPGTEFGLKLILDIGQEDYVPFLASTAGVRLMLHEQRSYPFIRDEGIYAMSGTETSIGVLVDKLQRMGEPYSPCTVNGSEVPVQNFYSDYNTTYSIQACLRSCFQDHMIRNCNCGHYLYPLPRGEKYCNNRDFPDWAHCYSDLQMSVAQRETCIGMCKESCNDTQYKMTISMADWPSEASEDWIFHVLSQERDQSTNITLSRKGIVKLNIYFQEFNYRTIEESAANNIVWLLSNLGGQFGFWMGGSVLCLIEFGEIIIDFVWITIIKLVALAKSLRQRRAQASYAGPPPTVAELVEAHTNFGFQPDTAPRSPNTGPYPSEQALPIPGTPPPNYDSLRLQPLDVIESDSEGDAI
T1 sequence (P51170 1-649): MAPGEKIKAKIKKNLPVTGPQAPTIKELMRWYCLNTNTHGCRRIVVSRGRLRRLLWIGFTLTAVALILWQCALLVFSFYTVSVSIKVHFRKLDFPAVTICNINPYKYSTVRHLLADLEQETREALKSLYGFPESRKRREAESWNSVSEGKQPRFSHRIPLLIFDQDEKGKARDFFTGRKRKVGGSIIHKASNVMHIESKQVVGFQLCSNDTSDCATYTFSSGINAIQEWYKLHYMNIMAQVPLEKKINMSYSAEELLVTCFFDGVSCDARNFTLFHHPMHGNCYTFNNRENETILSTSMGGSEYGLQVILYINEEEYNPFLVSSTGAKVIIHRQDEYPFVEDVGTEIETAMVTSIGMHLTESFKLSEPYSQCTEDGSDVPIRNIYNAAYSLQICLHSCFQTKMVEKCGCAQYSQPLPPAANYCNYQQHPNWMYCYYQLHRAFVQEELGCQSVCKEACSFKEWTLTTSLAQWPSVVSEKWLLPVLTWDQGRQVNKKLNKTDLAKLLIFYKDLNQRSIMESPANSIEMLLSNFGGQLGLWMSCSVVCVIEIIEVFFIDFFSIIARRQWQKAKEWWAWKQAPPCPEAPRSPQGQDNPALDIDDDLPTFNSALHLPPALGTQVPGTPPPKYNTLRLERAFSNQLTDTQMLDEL
Experiment: Measurement of ENaC activation potency (two electrode voltage clamp current in ENaC-expressing oocyte)
Type: cell-based
Conditions: lowest concentration increasing the current value by not less than 10% vs before addition
Procedure: ENaC activation current value, namely, the inward current in ENaC-expressing oocyte was measured as follows.
According to the method described in Motonao Nakamura, Takao Shimizu: Experiment of African clawed frog oocyte, Experimental Medicine Vol. 11, No. 3, 224-232 (1993), oocyte was collected from African clawed frog, […], and the current value was measured by a Two Electrode Voltage Clamp technique. In the present invention, ND96 (96 mM NaCl, 2 mM KCl, 1 mM MgCl2, 5 mM Hepes, 1.8 mM CaCl2, pH 7.6) was used instead of MBS buffer in the above-mentioned document. Injector NANOLITER 2000 manufactured by World Precision Instruments was used for microinjection, OpusXpress 6000A manufactured by Molecular Devices was used for current value measurement by a Two Electrode Voltage Clamp technique, and Clampfit 10.2 software manufactured by Molecular Devices was used for data analysis.
Human ENaC δ, β and γ subunit genes shown by SEQ ID NOs: 1, 2 and 3, respectively, in the Sequence Listing were each cloned into a plasmid vector, and used as a template DNA for cRNA synthesis. cRNA was synthesized using MEGAscript kit manufactured by Ambion and according to the method of the manual of the manufacturer.
A mixture of the same amount of ENaC δ subunit cRNA (0.4 to 0.8 μg/μL), and β and γ subunits cRNA (0.4 μg/μL) was injected into the oocyte of African clawed frog at 27.6 nL per oocyte, and the oocyte was cultured for 16 hours to 72 hours. Thereafter, the oocyte was set on a measuring apparatus OpusXpress 6000A, the electrodes were inserted into the oocyte, the voltage was clamped at a level lower by −30 mV than the resting membrane potential by a Two Electrode Voltage Clamp technique, and the current value was measured.
To measure the ENaC activation potency, oocyte was stimulated with each test compound, and the minimum effective dose (hereinafter to be abbreviated as MED) of the compound at the time point when the electric current started to increase was measured. In this case, the minimum effective dose of the stimulation compound that increased the current value by not less than 10%, as compared to the current value before addition of the compound and without stimulation, was taken as MED. A smaller MED means higher ENaC activation potency.
Each test compound was directly dissolved in ND96, or first dissolved in dimethyl sulfoxide (DMSO) to 100 mM, and then prepared by diluting the solution with ND96 to a concentration used for the evaluation. The concentration of the test compound in ND96 was prepared to various concentrations within the range of 0.1 nM to 300 μm.
ND96 as a perfusion fluid was flowed at a rate of 0.5 mL/min through the measuring apparatus OpusXpress 6000A on which ENaC-expressing oocyte was set, the perfusion fluid was temporarily stopped every 3 minutes to add a test compound solution (0.25 mL) dissolved in ND96 at a rate of 0.5 mL/minute. In this way, the test compound was contacted with ENaC-expressing oocyte, and whether ENaC is activated by the compound was examined by measuring the current value. After addition of the test compound, feeding of the perfusion fluid was resumed to wash away the compound to be ready for the next addition of the compound.
The compound was added successively from a low concentration to a high concentration to stimulate ENaC-expressing oocyte. The concentrations actually added was, for example, 1 nM, 3 nM, 10 nM, 30 nM, 100 nM, 300 nM; 1 μM, 3 μM, 10 μm, 30 μm, 100 μm, 300 μm; 1.2 μM, 6 μM, 30 μm, 150 μm of one test compound. The compound was added from low concentrations to high concentrations at 3 minute intervals. The first compound was added from a low concentration to a high concentration, then the second and the third compounds were similarly added successively to the same oocyte, and changes in the current value were measured. The current value was continuously measured from the start to the end of the experiment. […]

Row | MED value (minimum effective dose) | Compound
1 | 0.6 µM | COC(=O)[C@H](Cc1c[nH]c2ccccc12)NC(=O)c1c(O)cccc1O [Example 1, (S)-Methyl 2-(2,6-dihydroxybenzamido)-3-(1H-indol-3-yl)propanoate]
2 | 0.6 µM | COC(=O)[C@@H](Cc1c[nH]c2ccccc12)NC(=O)c1c(O)cccc1O [Example 2]
3 | 0.6 µM | O=C(N[C@@H](Cc1c[nH]c2ccccc12)C(=O)O)c1c(O)cccc1O [Example 3]
4 | 0.6 µM | O=C(N[C@H](Cc1c[nH]c2ccccc12)C(=O)O)c1c(O)cccc1O [Example 4]
5 | 3 µM | O=C(O)c1ccccc1C(=O)NCCc1c[nH]c2ccc(O)cc12 [Example 9]
6 | 3 µM | O=C(N[C@@H](Cc1c[nH]c2ccc(O)cc12)C(=O)O)c1c(O)cccc1O [Example 12]
7 | 1 µM | O=C(N[C@H](CO)Cc1c[nH]c2ccccc12)c1c(O)cccc1O [Example 14]
8 | 1 µM | O=C(NC(Cc1c[nH]c2cc(F)ccc12)C(=O)O)c1c(O)cccc1O (stereo not shown) [Example 19]
9 | 3 µM | N[C@@H](Cc1c[nH]c2ccccc12)C(=O)Nc1c(O)cccc1O [Example 22]
10 | 10 µM | N[C@H](Cc1c[nH]c2ccccc12)C(=O)Nc1c(O)cccc1O [Example 23]
11 | 1 µM | O=C(NC(Cc1c[nH]c2ccccc12)C(=O)O)c1cccc(O)c1O (stereo not shown) [Example 39]
12 | 1 µM | O=C(N[C@H](Cc1c[nH]c2ccccc12)C(=O)O)c1cc(O)ccc1O [Example 41]
13 | 1 to 3 µM | O=C(NCCc1c[nH]c2ccccc12)c1cc(O)ccc1O [Example 42]
14 | 1 to 3 µM | O=C(CCc1ccccc1)N[C@@H](Cc1c[nH]c2ccccc12)C(=O)O [Example 63]
15 | 3 µM | COc1ccc(CCC(=O)N[C@@H](Cc2c[nH]c3ccccc23)C(=O)O)cc1 [Example 65]
16 | 3 µM | O=C(CCc1ccc2c(c1)OCO2)N[C@@H](Cc1c[nH]c2ccccc12)C(=O)O [Example 66]
17 | 1 to 3 µM | Cn1cc(C[C@H](NC(=O)CCc2ccccc2)C(=O)O)c2ccccc21 [Example 71]
18 | 1 to 3 µM | O=C(CCc1ccccc1)N[C@@H](Cc1ccccc1)C(=O)O [Example 72]
19 | 1 to 3 µM | Cc1ccc2[nH]cc(CC(NC(=O)CCc3ccccc3)C(=O)O)c2c1 (stereo not shown) [Example 73]

Further lines, the compound ahead of its results:

Row | Compound | MED value (minimum effective dose)
20 | CC(C)(C)OC(=O)NC(Cc1c[nH]c2ccccc12)C(=O)Nc1c(O)cccc1O (stereo in doubt) [Example 21, tert-butyl (S)-1-(2,6-dihydroxyphenylcarbamoyl)-2-(1H-indol-3-yl)ethylcarbamate] | 10 µM
21 | O=C(NCCc1c[nH]c2ccc(O)cc12)c1ccccc1O [Example 6] | 3 µM
22 | COC(=O)[C@H](Cc1c[nH]c2ccc(O)cc12)NC(=O)c1c(O)cccc1O [Example 10] | 3 µM
23 | COC(=O)[C@H](Cc1cn(C)c2ccccc12)NC(=O)c1c(O)cccc1O [Example 11] | 3 µM
24 | O=C(N[C@@H](Cc1c[nH]c2ccccc12)C(=O)OCc1ccccc1)c1c(O)cccc1O [Example 15] | 10 µM
25 | COC(=O)C(C)(Cc1c[nH]c2ccccc12)NC(=O)c1c(O)cccc1O (stereo not shown) [Example 16] | 3 µM
26 | COC(=O)C(Cc1c[nH]c2cc(F)ccc12)NC(=O)c1c(O)cccc1O (stereo not shown) [Example 17] | 1 µM
27 | CC(Cc1c[nH]c2ccccc12)(NC(=O)c1c(O)cccc1O)C(=O)O (stereo not shown) [Example 18] | 3 µM
28 | CC(C)(C)OC(=O)N[C@@H](Cc1c[nH]c2ccccc12)C(=O)Nc1c(O)cccc1O [Example 20] | 10 µM
29 | COc1cccc(OC)c1C(=O)NCCc1c[nH]c2ccc(O)cc12 [Example 25] | 3 µM
30 | O=C(NCCc1c[nH]c2ccc(O)cc12)c1c(C(F)(F)F)cccc1C(F)(F)F [Example 26] | 6 µM
31 | O=C(NCCc1c[nH]c2ccc(O)cc12)c1c(Cl)cccc1Cl [Example 27] | 3 µM
32 | O=C(NCCc1c[nH]c2ccc(O)cc12)c1c(O)cc(O)cc1O [Example 28] | 1 to 3 µM
33 | Cc1cc(O)c(C(=O)NCCc2c[nH]c3ccc(O)cc23)c(O)c1 [Example 29] | 1 to 3 µM
34 | O=C(NCCc1c[nH]c2ccc(O)cc12)c1cccc(O)c1O [Example 32] | 1.2-6^ μM
